Reference: patent publication US5204328A, “Peptides having atrial natriuretic factor activity” (Merck & Co., Inc., priority 1991, dated 1993)
Where a SMILES comes first, the peptide text is derived from it. Bridges are numbered along the chain shown (N, C = ends).

Tested on: Rabbit Renal Artery
Assay: Vasorelaxant relative potency, rabbit renal artery
Assay type: cell-based

SMILES | Vasorelaxant Relative Potency Rabbit Renal Artery (Table 1, (3-28) analogs, relative to sequence I = 1) | Vasorelaxant Relative Potency Rabbit Renal Artery (Table 2, (7-27)-NH2 analogs, relative to I (7-27)-NH2 = 1)
CC[C@H](C)[C@@H]1NC(=O)[C@H](CCCNC(=N)N)NC(=O)[C@H](CC(=O)O)NC(=O)[C@H]([C@@H](C)CC)NC(=O)[C@H](CCCNC(=N)N)NC(=O)CNC(=O)CNC(=O)[C@H](Cc2ccccc2)NC(=O)[C@@H](N)CSSC[C@@H](C(=O)N[C@@H](CC(N)=O)C(=O)N[C@@H](CO)C(=O)N2CCC[C@H]2C(=O)N[C@@H](CCCNC(=N)N)C(N)=O)NC(=O)CNC(=O)[C@H](CC(C)C)NC(=O)CNC(=O)[C@H](CO)NC(=O)[C@H](CCC(N)=O)NC(=O)[C@H](C)NC(=O)CNC1=O [Structure 23, PROLINE-26 ANF (7-27) amide] (H-CFGGRIDRIGAQSGLGCNSPR-NH2; disulfide 1-17) | 3.3 | –
CC[C@H](C)[C@@H]1NC(=O)[C@H](CCCNC(=N)N)NC(=O)[C@H](CC(=O)O)NC(=O)[C@H]([C@@H](C)CC)NC(=O)[C@H](CCCNC(=N)N)NC(=O)CNC(=O)CNC(=O)[C@H](Cc2ccccc2)NC(=O)[C@@H](N)CSSC[C@@H](C(=O)N[C@@H](CC(N)=O)C(=O)N[C@@H](CO)C(=O)N2CCC[C@H]2C(=O)N[C@@H](CCCNC(=N)N)C(N)=O)NC(=O)CNC(=O)[C@H](CC(C)C)NC(=O)CNC(=O)[C@H](CO)NC(=O)[C@H](CCC(N)=O)NC(=O)[C@H](C)NC(=O)CNC1=O [Structure 23] (H-CFGGRIDRIGAQSGLGCNSPR-NH2; disulfide 1-17) | – | 3.86
